“And” between values parts separate entries of the source, which are not always exact repeats. Equal entries are not always repeated.

The results in this text go back to article PMC8745330, “Aromatic Sulfonamides including a Sulfonic Acid Tail: New Membrane Impermeant Carbonic Anhydrase Inhibitors for Targeting Selectively the Cancer-Associated Isoforms” (International Journal of Molecular Sciences, 2021).

In series [1] the target is T1, hCA IX (Homo sapiens, UniProt Q16790).
T1 construct: made in house
Briefly: stopped flow CO2 hydrase assay, CA IX. It is filed as biochemical. As to conditions: for Selectivity index (SI) CA I/CA IX / Selectivity index (SI) CA II/CA IX: ratio between KI values; for Ki: stopped flow CO2 hydrase assay, mean from 3 different assays, errors ±5–10%. Here is the method: (§1) An Applied Photophysics stopped-flow instrument was used for assaying the CA catalyzed CO2 hydration activity. Phenol red (at a concentration of 0.2 mM) was used as an indicator, working at the absorbance maximum of 557 nm, with 20 mM HEPES (pH 7.5) as buffer, and 20 mM Na2SO4 (for maintaining constant the ionic strength), following the initial rates of the CA-catalyzed CO2 hydration reaction for a period of 10–100 s. The CO2 concentrations ranged from 1.7 to 17 mM for the determination of the kinetic parameters and inhibition constants. For each inhibitor, at least six traces of the initial 5–10% of the reaction were used for determining the initial velocity. The uncatalyzed rates were determined in the same manner and subtracted from the total observed rates. Stock solutions of inhibitor (0.1 mM) were prepared in distilled–deionized water, and dilutions up to 0.01 nM were done thereafter with the assay buffer. Inhibitor and enzyme solutions were preincubated together for 45 min at room temperature prior to assay in order to allow for the formation of the E–I complex. The inhibition constants were obtained by non-linear least-squares methods using PRISM 3 and the Cheng–Prusoff equation, as reported earlier, representing the mean from at least three different determinations. […] All CA isoforms were recombinant ones obtained in-house, as reported earlier.

The target of series [2] is T2, hCA XII (Homo sapiens, UniProt O43570).
T2 construct: made in house
T2 sequence (O43570 25-354): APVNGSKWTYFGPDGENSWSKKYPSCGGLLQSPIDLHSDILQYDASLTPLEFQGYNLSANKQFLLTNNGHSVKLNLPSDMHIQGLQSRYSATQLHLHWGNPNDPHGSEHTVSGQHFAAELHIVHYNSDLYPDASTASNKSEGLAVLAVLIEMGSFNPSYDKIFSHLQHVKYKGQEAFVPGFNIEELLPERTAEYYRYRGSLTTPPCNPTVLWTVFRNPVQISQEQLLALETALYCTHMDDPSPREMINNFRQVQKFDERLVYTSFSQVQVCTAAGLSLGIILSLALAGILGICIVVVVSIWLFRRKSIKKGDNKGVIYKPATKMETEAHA
Briefly: stopped flow CO2 hydrase assay, CA XII. In kind it is biochemical. The settings on record: for Selectivity index (SI) CA I/CA XII / Selectivity index (SI) CA II/CA XII: ratio between KI values; for Ki: stopped flow CO2 hydrase assay, mean from 3 different assays, errors ±5–10%. Here is the method: as §1

For series [3], the target named is T3, hCA IV (Homo sapiens, UniProt P22748).
T3 construct: made in house
T3 sequence (P22748 19-312): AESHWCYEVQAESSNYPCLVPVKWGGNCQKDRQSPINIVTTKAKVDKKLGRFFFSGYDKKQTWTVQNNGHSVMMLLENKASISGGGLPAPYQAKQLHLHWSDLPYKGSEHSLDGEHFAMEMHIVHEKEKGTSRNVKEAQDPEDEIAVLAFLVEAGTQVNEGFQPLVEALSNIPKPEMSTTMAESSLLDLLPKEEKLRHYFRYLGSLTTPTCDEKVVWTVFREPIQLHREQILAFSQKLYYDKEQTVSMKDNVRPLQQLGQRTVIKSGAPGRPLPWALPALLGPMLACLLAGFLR
Briefly: stopped flow CO2 hydrase assay, CA IV. In kind it is biochemical. As to conditions: mean from 3 different assays, errors ±5–10%. The method, then: as §1

A short description of series [4]: Caco-2 cell viability by MTS. It is filed as cell-based. As to conditions: human; Caco-2 cells, 50 μM, 2 h of exposure, MTS; data not shown. Here is the method:
(§2) The colorectal adenocarcinoma cell line Caco-2 was purchased from American Tissue Type Culture Collection (Manassas, VA, USA) and cultured in Dulbecco’s modified Eagle’s medium (DMEM) (Thermo Fisher Scientific, Rodano, Milan, Italy) with 20% fetal bovine serum (FBS) (Thermo Fisher Scientific, Rodano, Milan, Italy) and 100 U/mL penicillin–streptomycin (Thermo Fisher Scientific, Rodano, Milan, Italy) in 5% CO2 at 37 °C. Cell viability was determined by MTS after 2 h of exposure to the aliphatic sulfonate CAIs at 50 µM concentration, as previously described.

Series [5] addresses T4, hCA I (Homo sapiens, UniProt P00915).
T4 construct: made in house
Briefly: stopped flow CO2 hydrase assay, CA I. As to conditions: mean from 3 different assays, errors ±5–10%. In kind it is biochemical. Here is the method: as §1

Series [6] deals with T5, hCA II (Homo sapiens, UniProt P00918).
T5 construct: made in house
Briefly: stopped flow CO2 hydrase assay, CA II. The settings on record: mean from 3 different assays, errors ±5–10%. In kind it is biochemical. The method, then: as §1

Series [7] has as its system Caco-2 cells. Briefly: Caco-2 cell viability by MTS. In kind it is cell-based. As to conditions: 50 µM. The method, then: as §2

T4 sequence (P00915 whole entry): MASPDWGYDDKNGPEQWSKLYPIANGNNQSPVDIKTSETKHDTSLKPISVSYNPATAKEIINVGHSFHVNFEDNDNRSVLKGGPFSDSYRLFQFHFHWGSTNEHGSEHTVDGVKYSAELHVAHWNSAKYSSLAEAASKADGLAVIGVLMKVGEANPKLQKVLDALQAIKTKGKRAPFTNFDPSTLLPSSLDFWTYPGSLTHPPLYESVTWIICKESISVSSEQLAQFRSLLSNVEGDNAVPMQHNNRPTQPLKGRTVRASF

As to `NS(=O)(=O)c1ccc(C(=O)NCc2cn(CCCS(=O)(=O)[O-])nn2)cc1.[Na+]` [Compound 33, Sodium 3-(4-((4-sulfamoylbenzamido)methyl)-1H-1,2,3-triazol-1-yl)propane-1-sulfonate], the melting point (commonly the temperature, or range, at which the solid turns liquid) was > 300 °C. Moreover, in series [1], the “Selectivity index (SI) CA I/CA IX” value is listed as 143; the “Selectivity index (SI) CA II/CA IX” value was 1.3; the Ki – broadly, a dissociation constant, usually derived from enzyme kinetics or from competition with a known ligand – amounted to 3.2 nM. Further, in series [2], the “Selectivity index (SI) CA I/CA XII” value was 48 and 48.2; the “Selectivity index (SI) CA II/CA XII” value amounted to 0.45; the Ki stood at 9.5 nM. In addition, the affinity in series [3] corresponds to a Ki of 56.3 nM. Moreover, the viability (commonly a per cent measure of how many cells are alive, often set against a control) at 2 h, 50 µM in series [4] is > 95%. In series [5], this molecule returned a Ki of 458 nM. Moreover, in series [6], affinity was put at a Ki of 4.3 nM.
Consider `NS(=O)(=O)c1ccc(NC(=O)NCc2cn(CCCS(=O)(=O)[O-])nn2)cc1.[Na+]` [Compound 34, Sodium 3-(4-((3-(4-sulfamoylphenyl)ureido)methyl)-1H-1,2,3-triazol-1-yl)propane-1-sulfonate], for which the melting point is > 300 °C. Further, in series [1], the “Selectivity index (SI) CA I/CA IX” value amounted to 9.1, the “Selectivity index (SI) CA II/CA IX” value came to 0.11 and the Ki was determined as 68.2 nM. In series [2], the “Selectivity index (SI) CA I/CA XII” value was found to be 9.2, the “Selectivity index (SI) CA II/CA XII” value turned out to be 0.11 and the Ki amounted to 67.6 nM. In series [3], affinity was put at a Ki of 63.5 nM. Further, the viability at 2 h, 50 µM in series [4] was > 95%. Moreover, the Ki in series [5] was determined as 622 nM. Further, in series [6], the affinity, expressed as Ki, was 7.4 nM.
With `CC(=O)Nc1cc(S(N)(=O)=O)ccc1OCc1cn(CCCS(=O)(=O)[O-])nn1.[Na+]` [Compound 39, Sodium 3-(4-((2-acetamido-4-sulfamoylphenoxy)methyl)-1H-1,2,3-triazol-1-yl)propane-1-sulfonate], the melting point is > 300 °C. Besides, in series [1], the “Selectivity index (SI) CA I/CA IX” value is recorded as >41, the “Selectivity index (SI) CA II/CA IX” value is given as 0.26 and the Ki was determined as 242 nM. For the same molecule, in series [2], the “Selectivity index (SI) CA I/CA XII” value is reported as >534, the “Selectivity index (SI) CA II/CA XII” value is on record as 3.4 and the Ki amounted to 18.7 nM. The molecule further displayed a Ki in series [3] of 244 nM. For the same molecule, the viability at 2 h, 50 µM in series [4] was > 95%. In series [5], the Ki was > 10000 nM. In series [6], this molecule showed a Ki of 63.4 nM.
For the molecule “Sodium 3-(4-(((4-sulfamoylphenyl)amino)methyl)-1H-1,2,3-triazol-1-yl)butane-1-sulfonate [Compound 43]”, in series [1], the “Selectivity index (SI) CA I/CA IX” value came out at 36, the “Selectivity index (SI) CA II/CA IX” value worked out at 4.5 and the Ki amounted to 79.9 nM. Moreover, in series [2], the “Selectivity index (SI) CA I/CA XII” value worked out at 855, the “Selectivity index (SI) CA II/CA XII” value is 107 and the Ki was 3.4 nM. For the same molecule, the affinity in series [3], expressed as Ki, was 883 nM. In addition, in series [7], the cell viability (as a rule, a per cent measure of how many cells are alive, often set against a control) is reported as > 95%. The Ki in series [5] came to 2910 nM. Further, affinity in series [6] was put at a Ki of 364 nM.
`NS(=O)(=O)c1ccc(NC(=O)Nc2ccc(OCc3cn(CCCS(=O)(=O)[O-])nn3)cc2)cc1.[Na+]` [Compound 38, Sodium 3-(4-((4-(3-(4-sulfamoylphenyl)ureido)phenoxy)methyl)-1H-1,2,3-triazol-1-yl)propane-1-sulfonate]: the melting point is > 300 °C. In addition, in series [1], the “Selectivity index (SI) CA I/CA IX” value was 0.95, the “Selectivity index (SI) CA II/CA IX” value turned out to be 0.10 and the Ki turned out to be 54.4 nM. Moreover, in series [2], the “Selectivity index (SI) CA I/CA XII” value is 1.1, the “Selectivity index (SI) CA II/CA XII” value is 0.11 and affinity was put at a Ki of 49 nM. Also, the Ki in series [3] turned out to be 36.7 nM. The viability at 2 h, 50 µM in series [4] was > 95%. Besides, the Ki in series [5] was 51.6 nM. In series [6], this molecule showed a Ki of 5.4 nM.
For the molecule “Sodium 3-(4-(4-sulfamoylphenyl)-1H-1,2,3-triazol-1-yl)butane-1-sulfonate [Compound 41]”, in series [1], the “Selectivity index (SI) CA I/CA IX” value amounted to 17, the “Selectivity index (SI) CA II/CA IX” value turned out to be 2.2 and the Ki was found to be 8.6 nM. For the same molecule, in series [2], the “Selectivity index (SI) CA I/CA XII” value came out at 3.4; the “Selectivity index (SI) CA II/CA XII” value was 0.44; the affinity, expressed as Ki, was 43.1 nM. For the same molecule, the Ki in series [3] came to 408 nM. The cell viability in series [7] was > 95%. In series [5], this molecule gave a Ki of 150 nM. Besides, the Ki in series [6] is 18.8 nM.
